For the assay, the system named is cough of guinea pigs induced by citric acid. Kind of assay: citric acid induced guinea pig cough model. Format: in vivo, Hartley guinea pigs. The conditions noted are these: for Cough Time (Number of Times) / Cough Incubation Period: once daily for 3 days, x±s, n=8; for Cough Time (Number of Times): cough times within 6 min after citric acid atomization; for Cough Incubation Period: within 6 min after citric acid atomization; for Antitussive Ratio: (N(blank control)-N(administration group))/N(blank control)x100%. Here is the method: Experimental animals: 250-350 g of common level Hartley guinea pigs, including half males and half females are provided by Guangdong Medical Experimental Animal Center, wherein the number of the animal certificate is SCXK (Yue) 2008-0002.
Reagents and instruments: citric acid monohydrate (Guangzhou Chemical Reagent Factory, batch number: 20121001-2), wherein 0.8 M of citric acid solution is prepared by adding normal saline into citric acid monohydrate when in use; an animal noninvasive Buxco lung function detecting system (Buxco Company of America); an Aeroneb Pro atomizer (Aerogen (Ireland) Co., Ltd.); and a gavage needle (Guangdong Medical Experimental Animal Center).
A citric acid induced guinea pig cough model is adopted for efficacy evaluation. 112 Hartley guinea pigs are put in a 6 L plethysmograph of the animal noninvasive Buxco lung function detecting system one by one; the air velocity of a drift indicator is 2.5 L/min; 0.8 M of atomized aerosol of citric acid ultrapure aqueous solution is led for 1 min by the Aeroneb Pro atomizer; the average diameter of the atomized granules is […]; observation is carried out for 5 min; the sound of cough is recorded and amplified by an indoor microphone; sound waves are analyzed by Biosystem XA software; and computer software is used for processing sound data and recording cough situations. A trained observer observes whether a cough response exists or not, records the cough times within 6 min since atomization and selects the guinea pigs with more than 10 cough times as qualified animals for tests.
56 Hartley guinea pigs qualified by screening, including half males and half females, are randomly divided into 7 groups; 1 mL/100 g of normal saline is provided to a blank control group; a corresponding solvent (Tween-80 aqueous solution with 5% volume concentration) with equal volume is provided to a solvent group; 30 mg/kg of codeine phosphate with equal volume is provided to a positive drug group, asarinin (30 mg/kg, 60 mg/kg and 120 mg/kg of samples in embodiment 1) and total volatile oil of asarum (200 mg/kg of samples in embodiment 1) with equal volume are provided to each of administration groups; administration is carried out one time every day for successive 3 days. A citric acid atomization simulation test is carried out in the animal noninvasive Buxco lung function detecting system within 2 h after last administration (atomization conditions are described above); the cough times (N) and the cough incubation periods within 6 min are recorded; and the antitussive ratios of all the administration groups are calculated by a formula: antitussive ratio=(N(blank control)−N(administration group))/N(blank control)×100%.
The data are expressed by x±s, and a one-way analysis of variance is carried out on parameters of all the groups by IBM SPSS Statistics 19.0 software.

These results are taken from patent US10501470B2, “Use of asarinin in preparation of medicines for treating various coughs” (priority 2017, dated 2019).

As for `c1cc2c(cc1C1OCC3C1CO[C@H]3c1ccc3c(c1)OCO3)OCO2` (stereo in doubt) [Asarinin, 5,5′-[(1R,3aR,4S,6aR)-tetrahydro-1H,3H-furo[3,4-c]furan-1,4-diyl]bis-1,3-Benzodioxole], where the note is “30 mg/kg”, the “Cough Time (Number of Times)” value is 16.3 ± 2.2 Number of Times, the “Cough Incubation Period” value is 98.5 ± 9.5 S and the “Antitussive Ratio” value was determined as 39.2%. Also, for the setting “60 mg/kg”, the “Cough Time (Number of Times)” value is recorded as 13.2 ± 2.1 Number of Times, the “Cough Incubation Period” value is given as 94.2 ± 13.6 S and the “Antitussive Ratio” value was 50.7%. For the same compound, under “120 mg/kg”, the “Cough Time (Number of Times)” value is recorded as 12.6 ± 1.9 Number of Times, the “Cough Incubation Period” value came out at 127.3 ± 24.8 S and the “Antitussive Ratio” value is on record as 53.0%.
As to `COc1ccc2c3c1O[C@H]1[C@@H](O)C=C[C@H]4[C@@H](C2)N(C)CC[C@@]341` [Codeine Phosphate, reference compound], where the note is “30 mg/kg”, the “Cough Time (Number of Times)” value was 12.0 ± 2.3 Number of Times, the “Cough Incubation Period” value was found to be 130.0 ± 32.4 S and the “Antitussive Ratio” value is 55.2%.
